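Interpolation was linear, between the two tested concentrations surrounding the appropriate level; five concentrations were tested over 48 hours in 96-well plates. The concentration for 50% growth inhibition is given as GI50. TGI denotes the concentration required for complete inhibition of growth.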
What was measured:
Assay in all cases: DTP human tumour cell line panel, 48 h
A549 NSCLC = test system: A549 NSCLC
COLO 205 colon = test system: COLO 205 colon
HCT-15 colon = test system: HCT-15 colon
HL-60(TB) leukemia = test system: HL-60(TB) leukemia
MDA-N = test system: MDA-N
MOLT-4 leukemia = test system: MOLT-4 leukemia
PC-3 prostate = test system: PC-3 prostate
SN12C renal = test system: SN12C renal
SW-620 colon = test system: SW-620 colon
SF-539 CNS = test system: SF-539 CNS

Row | SMILES | TGI (A549 NSCLC) [µM] | TGI (COLO 205 colon) [µM] | TGI (HCT-15 colon) [µM] | TGI (HL-60(TB) leukemia) [µM] | TGI (MDA-N) [µM] | TGI (MOLT-4 leukemia) [µM] | TGI (PC-3 prostate) [µM] | TGI (SN12C renal) [µM] | TGI (SW-620 colon) [µM] | TGI (SF-539 CNS) [µM] | GI50 (A549 NSCLC) [µM] | GI50 (COLO 205 colon) [µM] | GI50 (HCT-15 colon) [µM] | GI50 (HL-60(TB) leukemia) [µM] | GI50 (MOLT-4 leukemia) [µM] | GI50 (PC-3 prostate) [µM] | GI50 (SF-539 CNS) [µM] | GI50 (SN12C renal) [µM] | GI50 (SW-620 colon) [µM]
1 | N=c1oc2ccc3ccccc3c2cc1C(N)=O | > 100 | > 100 | > 100 | > 100 | > 100 | > 100 | > 100 | > 100 | > 100 | – | – | – | – | – | – | – | – | – | –
2 | COc1cc2c(cc1OCCCC(=O)Nc1cc(C(=O)Nc3cc(C(=O)Nc4cc(C(=O)NCCCN(C)C)n(C)n4)n(C)n3)n(C)n1)N=CC1CCCN1C2=O (stereo not given) | > 100 | > 100 | > 100 | > 100 | – | > 100 | > 100 | 42.3 | > 100 | > 100 | – | – | – | – | – | – | – | – | –
3 | CO/C(=N\N=C\c1cccc(Cl)c1)c1ccncc1 | > 10 | > 10 | > 10 | > 10 | > 10 | > 10 | > 10 | > 10 | > 10 | – | – | – | – | – | – | – | – | – | –
4 | COC(=O)C1CCC(=O)N1C(=O)Cc1ccc(OC)cc1 (stereo not given) | > 100 | > 100 | > 100 | – | – | – | – | > 100 | > 100 | – | – | – | – | – | – | – | – | – | –
5 | Cc1nc2c3c(ncn2n1)Oc1c(c(-c2ccccc2)nn1-c1ccccc1)C3c1ccc(Cl)cc1 (stereo not given) | > 100 | > 100 | > 100 | – | > 100 | > 100 | > 100 | > 100 | > 100 | 97.1 | – | – | – | – | – | – | – | – | –
6 | O=[N+]([O-])c1ccc(S[C@@H]2[C@H]3c4c(-c5ccccc5)[nH]c(-c5ccccc5)c4[C@@H]2C[C@H]3Cl)cc1 | > 100 | > 100 | 6.84 | 24.3 | 18.6 | – | > 100 | 22.2 | > 100 | > 100 | – | – | – | – | – | – | – | – | –
7 | CC1(C)OCC(C(O)C2OC(C)(C)OC2C=O)O1 (stereo not given) | > 100 | > 100 | > 100 | – | > 100 | > 100 | > 100 | > 100 | > 100 | – | – | – | – | – | – | – | – | – | –
8 | Cc1cc(/C=C\c2ccc3ccccc3[n+]2C)c(O)c2ncccc12 | 13.6 | 4.58 | 17.8 | – | – | > 100 | 7.58 | 8.95 | 2.15 | 0.909 | 0.564 | 0.448 | 1.52 | 0.125 | 0.4 | 0.855 | 0.202 | 0.375 | 0.196
9 | Cc1cccc2c1[nH]c1[nH]c(=O)[nH]c(=O)c12 | > 100 | > 100 | > 100 | > 100 | > 100 | > 100 | – | > 100 | > 100 | > 100 | – | – | – | – | – | – | – | – | –
10 | O=C(NCc1cccc(C(F)(F)F)c1)c1cc2sccc2nc1C(F)(F)F | > 100 | > 100 | – | – | > 100 | > 100 | > 100 | > 100 | > 100 | > 100 | – | – | – | – | – | – | – | – | –
11 | CC(=O)O[C@@H]1C[C@@]23C[C@@]24CC[C@H](OC2OCC(O)C(O)C2O)C(C)(C)[C@@H]4CC=C3[C@]2(C)C[C@@H]3OC4(C[C@@H](C)[C@@H]3[C@@]12C)OC(O)[C@@]1(C)O[C@@H]41 (stereo not given in full) | > 100 | 44 | 96.7 | 36.4 | > 100 | – | 61.1 | > 100 | > 100 | 41.4 | – | – | – | – | – | – | – | – | –
12 | CN(C)c1nc(N(C)C)nc(N(C)C23CC4CC(CC(C4)C2)C3)n1 | > 100 | 32.7 | > 100 | – | 53.7 | – | 72 | – | > 100 | > 100 | – | – | – | – | – | – | – | – | –
13 | N#Cc1nc(CCCCCN2C(=O)c3ccccc3C2=O)oc1N | > 100 | > 100 | > 100 | – | > 100 | > 100 | > 100 | > 100 | > 100 | > 100 | – | – | – | – | – | – | – | – | –
14 | CCOC(=O)C(=[N+]=[N-])C(=O)Nc1nn2nnnc2c2ccccc12 | > 100 | > 100 | – | > 100 | > 100 | > 100 | > 100 | > 100 | > 100 | > 100 | – | – | – | – | – | – | – | – | –
15 | CN(C)CCNC(=O)c1ccc(NCCCN(C)CCCNc2ccc3c(=O)n(CCN(C)C)c(=O)n4c5ccccc5c(=O)c2c34)c2c(=O)c3ccccc3[nH]c12 | 0.164 | 0.353 | 1.31 | 0.273 | 0.199 | 1.1 | 0.249 | 0.262 | – | 2.46 | – | – | – | – | – | – | – | – | –
16 | c1ccc(CCN2CCc3[nH]c4ccccc4c3C2)cc1 | 62.3 | > 10 | 46.2 | 41.7 | – | 70.5 | – | 62.2 | 29.6 | 40 | – | – | – | – | – | – | – | – | –
17 | Clc1ccc(N2N=C(c3cccc(Nc4ccncc4)c3)CC2c2ccc3c(c2)OCO3)cc1 (stereo not given) | – | – | 3.41 | 4.16 | – | 4.58 | 3.27 | 3.25 | 3.15 | 3.38 | – | – | 1.76 | 1.93 | 1.97 | 1.58 | 1.79 | 1.71 | 1.63
18 | CC(C)=CCC/C(C)=C/CC/C(C)=C/Cc1c(O)c2ccccc2oc1=O | > 100 | > 100 | > 100 | > 100 | – | > 100 | – | > 100 | > 100 | > 100 | – | – | – | – | – | – | – | – | –
19 | Nc1nc(-c2ccccc2N=NN2CCCC2)nc2ccccc12 | 10.5 | 10.4 | 11.1 | – | – | 3.52 | 15.4 | 3.43 | 5.96 | 5 | – | – | – | – | – | – | – | – | –
20 | Cc1ccc(C2=NOC(=O)[C@@H]3CCCC[C@@H]23)cc1 | – | > 100 | > 100 | > 100 | > 100 | > 100 | > 100 | > 100 | > 100 | > 100 | – | – | – | – | – | – | – | – | –
21 | O=C1NC(=O)/C(=C/c2ccc(S(=O)(=O)N/N=C/c3ccc(Cl)cc3)cc2)N1 | > 100 | > 100 | > 100 | > 100 | > 100 | > 100 | > 100 | > 100 | > 100 | – | – | – | – | – | – | – | – | – | –
22 | O=CC(O)C(O)C(O)C(O)C(=O)NCCCCCCCCCCCCNC(=O)C(O)C(O)C(O)C(O)C=O (stereo not given) | > 100 | > 100 | > 100 | > 100 | > 100 | > 100 | > 100 | – | > 100 | > 100 | – | – | – | – | – | – | – | – | –
